Earlier results in publication PMC12281572.
Several values for one entry are separate records, joined by “and”; a condition that tells them apart may be missing. Equal values may be shown once.

Assay: FTIR, 4-fluorophenol as donor (the pK_BHX database, per the paper)
Conditions: CCl4; 25 C

| Structure (SMILES) | pK_BHX (log10 Kf of the 1:1 H-bond complex with 4-fluorophenol, by FTIR) |
| --- | --- |
| CN(C)n1cccc1 | 0.23 log units |
| CCN(CC)C(=O)N(c1ccccc1)c1ccccc1 | 2.07 log units |
| CCSCC | 0.25 log units |
| CN=C(N(C)C)N(C)C | 3.16 log units |
| COc1cccc(C#N)c1 | 0.8 log units |
| [O-][n+]1ccc(-c2ccccc2)cc1 | 2.85 log units |
| CC1CCN(c2ccncc2)CC1 | 2.68 log units |
| Nc1cccc(F)c1 | 0.2 log units |
| Cc1ccc(N=CN(C)C)cc1 | 2.07 log units |
| CN(C)c1ccccn1 | 1.61 log units |
| CC(C)(C)OC(=O)c1ccccc1 | 0.97 log units |
| CC12CCC(CC1)C(C)(C)O2 | 1.38 log units |
| Cc1ccc(C(=O)N(C)C)cc1 | 2.27 log units |
| c1ccc(N=C(Nc2ccccc2)c2ccccc2)cc1 | 1.29 log units |
| CC(=O)c1ccc(N=CN(C)C)cc1 | 1.7 log units and 1.52 log units |
| Oc1ccccc1 | -0.07 log units |
| CN(C)C(=S)c1ccc(N)cc1 | 1.33 log units |
| CNC(C)=S | 1.14 log units |
| S=C1SCCS1 | 0.3 log units |
| CCN(C(C)C)C(C)C | 1.05 log units |
| Cc1cccc(C)c1 | -0.28 log units |
| C1CSCS1 | -0.38 log units |
| c1ccc(C2CC2)cc1 | -0.37 log units |
| CN1CCCC1 | 2.19 log units |
| c1ccsc1 | -0.5 log units |

| Structure (SMILES) | pK_BHX (log10 Kf of the 1:1 H-bond complex with 4-fluorophenol, by FTIR) |
| --- | --- |
| CCc1ccccn1 | 1.94 log units |
| Nc1ccccn1 | 2.12 log units |
| CC(C)CN(C(C)C)C(C)C | 0.3 log units |
| CC(C)(C)Cl | -0.28 log units |
| CCC(=O)N(C1CCCCC1)C1CCCCC1 | 2.22 log units |
| CCc1ccc(C(C)=O)cc1 | 1.25 log units |
| CC(=Nc1ccccc1)N(C)c1ccc(C)cc1 | 1.76 log units |
| Cc1ccc(N=C(c2ccccc2)N(C)c2ccccc2)cc1 | 1.52 log units |
| CCCCCl | -0.41 log units |
| NCc1cc(F)cc(F)c1 | 1.28 log units |
| CNC1CCCCC1 | 2.24 log units |
| CC(=Nc1cccc(Br)c1)Nc1ccccc1 | 1.24 log units |
| C=CCSC | 0.08 log units |
| CN(C)C=Nc1ccc(F)cc1 | 1.8 log units |
| CCN(CC)C(=O)SC | 1.56 log units |
| C#CC(=O)OCC | 0.63 log units |
| NCc1cccc(F)c1 | 1.58 log units |
| CCOc1ccccc1 | -0.01 log units |
| CC(=Nc1ccccc1)Nc1ccc(C)cc1 | 1.85 log units |
| CN(C)C=NC(=S)c1ccccc1 | 1.23 log units |
| Fc1cccc(C2=NCCC2)c1 | 1.66 log units |
| CCN(C)Cc1cccc(F)c1 | 1.14 log units |
| Cc1ccc(S(=O)c2ccc(C)cc2)cc1 | 2.21 log units |
| CNC(C)=O | 2.3 log units |
| c1cc2c3c(c1)CCCN3CCC2 | 0.39 log units |

| Structure (SMILES) | pK_BHX (log10 Kf of the 1:1 H-bond complex with 4-fluorophenol, by FTIR) |
| --- | --- |
| CN(C)C=O | 2.1 log units |
| CS(=O)c1ccccc1 (centres unmarked) | 2.24 log units |
| CCCCN(C=O)CCCC | 2.17 log units |
| Cc1ccc(N=C(c2ccccc2)N(C)c2ccc(Br)cc2)cc1 | 1.42 log units |
| CN(C)C=Nc1ccc(C#N)cc1 | 1.32 log units and 1.23 log units |
| CCCN(CCC)CCC | 1.47 log units |
| O=[N+]([O-])C=CN1CCCCC1 | 1.55 log units |
| Clc1ccccn1 | 1.05 log units |
| Cc1ccc(C)cc1 | -0.29 log units |
| CC(C)=C(C)C | -0.85 log units |
| CC(C)OC(C)C | 1.11 log units |
| C1C2CC3CC1CC(C2)C3C1OC1C1C2CC3CC(C2)CC1C3 (centres unmarked) | 1.44 log units |
| N#CC1CCCC1 | 0.88 log units |
| Cc1cccc(C)n1 | 2.14 log units |
| Cc1ccc(N(C)C)cc1 | 0.69 log units |
| CC(=O)c1ccc(C23CC4CC(CC(C4)C2)C3)cc1 | 1.3 log units |
| CCC(CC)N(C(C)C)C(C)C | -0.34 log units |
| CN(C)C(=O)C(C)(C)C | 2.1 log units |
| Cc1c(C)c(C)c(C)c(C)c1C | 0.02 log units |
| C1CN2CCN1CC2 | 2.33 log units |
| CSCSC | -0.22 log units |
| Clc1cccc(N=C(Nc2ccccc2)c2ccccc2)c1 | 1.05 log units |
| O=C(C12CC3CC(CC(C3)C1)C2)C12CC3CC(CC(C3)C1)C2 | 1.17 log units |
| CCCCNCCCC | 2.11 log units |
| CNC(C)C | 2.2 log units |

| Structure (SMILES) | pK_BHX (log10 Kf of the 1:1 H-bond complex with 4-fluorophenol, by FTIR) |
| --- | --- |
| CN(C)C(=O)c1ccc([N+](=O)[O-])cc1 | 1.9 log units |
| CC12CCC(CC1=N[N+](=O)[O-])C2(C)C (centres unmarked) | 0.34 log units |
| CN(C)c1ccc(C=O)cc1 | 1.53 log units |
| Clc1ccncc1 | 1.54 log units |
| c1ncncn1 | 0.32 log units |
| CC(=O)c1ccc(N2CCCCC2)cc1 | 1.71 log units |
| Nc1ncccn1 | 1.55 log units |
| CN(C)C=NCC(C)(C)C | 2.26 log units |
| COc1ccccc1 | -0.07 log units |
| CC(=O)N(c1ccccc1)c1ccccc1 | 1.94 log units |
| COc1cccc(N=C(c2ccccc2)N(C)c2ccccc2)c1 | 1.41 log units |
| Cc1cc(=O)cc(C)o1 | 2.5 log units |
| COc1ccccc1C(C)=O | 1.34 log units |
| CN1CCN(C)C1=S | 1.32 log units |
| Fc1nc(F)c(F)c(F)c1F | -0.49 log units |
| CN(C)c1ccc(C(=O)c2ccccc2)cc1 | 1.67 log units |
| NCCN | 2.25 log units |
| CN(C)C=NCc1ccccc1 | 2.35 log units |
| c1ccc2c(c1)Cc1ccccc1-2 | -0.38 log units |
| COc1cccc(CN=CN(C)C)c1 | 2.4 log units |
| Fc1cccnc1 | 1.35 log units |
| Cc1ccc(C#N)cc1 | 0.88 log units |
| O=[N+]([O-])c1cc[n+]([O-])cc1 | 1.05 log units |
